From paper PMC8395737 (2021)

Tests used:
[1] = tested on: TP3-T6 (DNA, G4) TGGGGTCCGAGGCGGGGCTTGGG; assay: ligand fluorescence titration, EQUISPEC multivariate fit; conditions: 70 mM KCl, 20 mM potassium phosphate; 20 mM phosphate buffer, pH 7.1, 20 °C, 3 µM ligand
[2] = tested on: TP3-T6 (DNA, G4) TGGGGTCCGAGGCGGGGCTTGGG; assay: 1H NMR imino proton titration; conditions: 70 mM KCl, 20 mM KH2PO4, pH 7.0, 25 °C, H2O/D2O 9:1, DMSO <7%
[3] = tested on: TP3-T6 (DNA, G4) TGGGGTCCGAGGCGGGGCTTGGG; assay: CD melting at 285 nm; conditions: 70 mM KCl, 20 mM phosphate, pH 7.1, 2 µM DNA, 6 µM ligand

Kb [1]	binding ([2]; R up to 2.0, 5'-end tetrad slightly shifted)	ΔTm ([3]; derived from two Tm (58.8 ± 1.3, 59.6 ± 0.8))	binding ([2]; R up to 2.0, 3'-end tetrad)	ΔTm ([3]; derived from two Tm (60.3 ± 1.3, 59.6 ± 0.8))	ΔTm ([3]; derived from two Tm (60.2 ± 1.0, 59.6 ± 0.8))	binding ([2]; up to R = 2.0, DNA 0.24–0.48 mM)	Structure (SMILES)
5.48 ± 0.16 × 10^5 M^-1	weak	-0.8 °C	–	–	–	–	C[C@]1(c2nc3c(C(N)=O)cccc3[nH]2)CCCN1
5.24 ± 0.20 × 10^5 M^-1	–	–	yes	0.7 °C	–	–	NC(=O)c1cccc2cn(-c3ccc([C@@H]4CCCNC4)cc3)nc12
5.45 ± 0.15 × 10^5 M^-1	–	–	yes	–	0.6 °C	–	NC(=O)n1ccc2ccc(-c3ccc(CN4CCCCC4)cc3)nc21
–	–	–	–	–	–	no	O=C(c1cc(Cc2n[nH]c(=O)c3ccccc23)ccc1F)N1CCN(C(=O)C2CC2)CC1
